≈ marks a conversion by molar mass, not a printed value.
How the values were obtained:
[1] = tested on: Mycobacterium tuberculosis; test: Antimycobacterial activity against Mycobacterium tuberculosis H37Rv under starvation condition assessed as inhibition of bacterial growth at 6.25 ug/ml measured after 9 days relative to control; type: functional; settings: 216 h, time 9 day
[2] = tested on: Mycobacterium tuberculosis; test: Antimycobacterial activity against Mycobacterium tuberculosis H37Rv assessed as inhibition of bacterial growth at 100 ug/ml measured after 9 days relative to control; type: functional; settings: 216 h, time 9 day
[3] = tested on: Mycobacterium tuberculosis; test: Antimycobacterial activity against Mycobacterium tuberculosis H37Rv under starvation condition assessed as inhibition of bacterial growth at 25 ug/ml measured after 1 day relative to control; type: functional; settings: 24 h
[4] = tested on: Mycobacterium tuberculosis; test: Antimycobacterial activity against Mycobacterium tuberculosis H37Rv assessed as inhibition of bacterial growth measured by Resazurin microtitre assay; type: functional
[5] = tested on: Mycobacterium tuberculosis; test: Antimycobacterial activity against Mycobacterium tuberculosis H37Rv under starvation condition assessed as inhibition of bacterial growth at 100 ug/ml measured after 3 days relative to control; type: functional; settings: 72 h, time 3 day
[6] = tested on: Mycobacterium tuberculosis; test: Antimycobacterial activity against Mycobacterium tuberculosis H37Rv under starvation condition assessed as inhibition of bacterial growth at 25 ug/ml measured after 3 days relative to control; type: functional; settings: 72 h, time 3 day
[7] = tested on: Mycobacterium tuberculosis; test: Antimycobacterial activity against Mycobacterium tuberculosis H37Rv under starvation condition assessed as inhibition of bacterial growth at 6.25 ug/ml measured after 3 days relative to control; type: functional; settings: 72 h, time 3 day
[8] = Cytotoxicity against African green monkey Vero cells assessed as cell viability at 100 ug/ml measured after 24 hrs relative to control; type: cell-based; settings: chlorocebus sabaeus, at 100 µg/mL, read-out: Activity
[9] = tested on: Mycobacterium tuberculosis; test: Antimycobacterial activity against Mycobacterium tuberculosis H37Rv assessed as inhibition of bacterial growth at 100 ug/ml measured after 24 hrs relative to control; type: functional
[10] = tested on: Mycobacterium tuberculosis; test: Antimycobacterial activity against Mycobacterium tuberculosis H37Rv under starvation condition assessed as inhibition of bacterial growth at 100 ug/ml measured after 9 days relative to control; type: functional; settings: 216 h, time 9 day
[11] = tested on: Mycobacterium tuberculosis; test: Antimycobacterial activity against Mycobacterium tuberculosis H37Rv under starvation condition assessed as inhibition of bacterial growth at 6.25 ug/ml measured after 1 day relative to control; type: functional; settings: 24 h
[12] = tested on: Mycobacterium tuberculosis; test: Antimycobacterial activity against Mycobacterium tuberculosis H37Rv under starvation condition assessed as inhibition of bacterial growth at 25 ug/ml measured after 9 days relative to control; type: functional; settings: 216 h, time 9 day
[13] = Selectivity index, ratio of IC50 for African green monkey Vero cells to MIC for antimycobacterial activity against Mycobacterium tuberculosis FURG-2; type: toxicity; settings: read-out: Selectivity Index
[14] = tested on: Mycobacterium tuberculosis; test: Antimycobacterial activity against Mycobacterium tuberculosis H37Rv under starvation condition assessed as inhibition of bacterial growth at 100 ug/ml measured after 1 day relative to control; type: functional; settings: 24 h
Vero = test: Cytotoxicity against African green monkey Vero cells assessed as cell viability measured after 24 hrs; type: cell-based; settings: Chlorocebus sabaeus
[15] = tested on: Mycobacterium tuberculosis; test: Antimycobacterial activity against Mycobacterium tuberculosis H37Rv assessed as inhibition of bacterial growth at 100 ug/ml measured after 3 days relative to control; type: functional; settings: 72 h, time 3 day

O=C(C1=CN(CCc2ccccc2)C(NCCc2ccccc2)CC1)C(F)(F)F (configuration not stated)
inhibition at 6.25 µg/mL [1]: 100%
inhibition at 100 µg/mL [2]: 100%
inhibition at 25 µg/mL [3]: 0%
MIC [4]: 25 µg/mL (≈ 62.1 µM)
inhibition at 100 µg/mL [5]: 99.9%
inhibition at 25 µg/mL [6]: 99.5%
inhibition at 6.25 µg/mL [7]: 0%
viability at 24 h, 100 ug/ml [8]: 80%
inhibition at 100 µg/mL [9]: 89.5%
inhibition at 100 µg/mL [10]: 100%
inhibition at 6.25 µg/mL [11]: 0%
inhibition at 25 µg/mL [12]: 100%
selectivity ratio [13]: > 10
inhibition at 100 µg/mL [14]: 97.5%
IC50 (Vero): 140 µg/mL (≈ 347 µM)
inhibition at 100 µg/mL [15]: 99.9%

CO[C@H]1/C=C/O[C@@]2(C)Oc3c(C)c(O)c4c(O)c(c(/C=N/N5CCN(C)CC5)c(O)c4c3C2=O)NC(=O)/C(C)=C\C=C\[C@H](C)[C@H](O)[C@@H](C)[C@@H](O)[C@@H](C)[C@H](OC(C)=O)[C@@H]1C [RIFAMPIN]
MIC [4]: 256 µg/mL (≈ 311 µM)
